Measurements reported in PubChem BioAssay (NCI).
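Step 1: Grow cells in 96-well plates. Step 2: Expose to compound for 48 hours at 5 concentrations. Step 3: Interpolate endpoints linearly; if unreached, use highest concentration. The concentration for full growth arrest is given as TGI.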

Key:
Assay in all cases: NCI-60 cell line screen, 48 h
UO-31 renal = system: UO-31 renal
A549 NSCLC = system: A549 NSCLC
NCI-H460 lung = system: NCI-H460 lung
SNB-75 CNS = system: SNB-75 CNS
UACC-257 melanoma = system: UACC-257 melanoma
M19-MEL melanoma = system: M19-MEL melanoma
SR leukemia = system: SR leukemia
K-562 leukemia = system: K-562 leukemia
EKVX NSCLC = system: EKVX NSCLC
SF-539 CNS = system: SF-539 CNS
RXF-631 renal = system: RXF-631 renal
MOLT-4 leukemia = system: MOLT-4 leukemia
HCT-15 colon = system: HCT-15 colon
HOP-18 NSCLC = system: HOP-18 NSCLC
HOP-62 NSCLC = system: HOP-62 NSCLC
SNB-19 CNS = system: SNB-19 CNS
U251 CNS = system: U251 CNS
M14 melanoma = system: M14 melanoma
CCRF-CEM leukemia = system: CCRF-CEM leukemia
HT29 colon = system: HT29 colon
KM12 colon = system: KM12 colon
COLO 205 colon = system: COLO 205 colon
OVCAR-4 ovarian = system: OVCAR-4 ovarian
SK-OV-3 ovarian = system: SK-OV-3 ovarian
SW-620 colon = system: SW-620 colon
786-0 renal = system: 786-0 renal
DMS 114 small cell lung = system: DMS 114 small cell lung
NCI-H23 lung = system: NCI-H23 lung
SNB-78 CNS = system: SNB-78 CNS
HCC-2998 colon = system: HCC-2998 colon
SF-295 CNS = system: SF-295 CNS
OVCAR-8 ovarian = system: OVCAR-8 ovarian
IGROV1 ovarian = system: IGROV1 ovarian
SN12C renal = system: SN12C renal
CAKI-1 renal = system: CAKI-1 renal
HCT-116 colon = system: HCT-116 colon
HOP-92 NSCLC = system: HOP-92 NSCLC
XF 498 CNS = system: XF 498 CNS
DLD-1 colon = system: DLD-1 colon
A498 renal = system: A498 renal
LXFL 529 NSCLC = system: LXFL 529 NSCLC
KM20L2 colon = system: KM20L2 colon
RXF 393 renal = system: RXF 393 renal
RPMI-8226 leukemia = system: RPMI-8226 leukemia
UACC-62 melanoma = system: UACC-62 melanoma
SK-MEL-2 melanoma = system: SK-MEL-2 melanoma
SK-MEL-28 melanoma = system: SK-MEL-28 melanoma
DMS 273 small cell lung = system: DMS 273 small cell lung
OVCAR-3 ovarian = system: OVCAR-3 ovarian
HL-60(TB) leukemia = system: HL-60(TB) leukemia
ACHN renal = system: ACHN renal
LOX IMVI melanoma = system: LOX IMVI melanoma
SK-MEL-5 melanoma = system: SK-MEL-5 melanoma
MALME-3M melanoma = system: MALME-3M melanoma
SF-268 CNS = system: SF-268 CNS
OVCAR-5 ovarian = system: OVCAR-5 ovarian
TK-10 renal = system: TK-10 renal
NCI-H522 lung = system: NCI-H522 lung
NCI-H226 lung = system: NCI-H226 lung

Measured: TGI

COc1c(CC(=O)c2ccccc2)c2ccccc2n1C(C)=O
not listed: LOX IMVI melanoma | SK-MEL-5 melanoma | MALME-3M melanoma | SF-268 CNS | OVCAR-5 ovarian | TK-10 renal | NCI-H522 lung | NCI-H226 lung
> 100 µM: all other assays above

CCN(C1=CC(=O)NC2CCCCN12)c1ccccc1 (stereo unspecified)
not listed: UO-31 renal | SR leukemia | HOP-92 NSCLC | HL-60(TB) leukemia | NCI-H522 lung | NCI-H226 lung
> 100 µM: all other assays above

C/C(=N\N(C)C)C(CN1CCCCC1)C(c1ccccc1)c1c(O)c2ccccc2oc1=O (stereo unspecified)
not listed: HCC-2998 colon | HOP-92 NSCLC
> 100 µM: all other assays above
